Reference: US20250231185A1, “Coronavirus T Cell Epitopes, Megapools and Uses Thereof” (La Jolla Institute for Immunology, priority 2021, published 2025)
“Also recorded” adds a separate entry of the source. Where two headings read alike, the source gives them in different places.

What was measured:
CD4+ T cells [1] = assay: Meta-analysis of published SARS-CoV-2 CD4 T cell epitope data curated in the IEDB (25 studies); assay type: cell-based, human
CD4+ T cells [2] = conditions: cited from earlier work; for Allele(s): HLA class II allele(s) identified as MHC restriction elements of the CD4 epitope; for Restriction: T cell subset (CD4 or CD8) recognizing the SARS-CoV-2 epitope
[3] = CD4R (D) Megapool, non-spike antigens, dominant = recognized in 3 or more donors/studies
[4] = CD4RE megapool peptides (non-spike SARS-CoV-2 CD4 epitopes), dominant = recognized by 3 or more donors/different studies
[5] = SARS-CoV-2-derived CD4 epitopes, Yes = recognized by 3 or more donors/different studies

2302 (TSRTLSYYKLGASQRVA) [compound 2302]
Dominant (CD4+ T cells [1]; [3]): Yes (more dominant epitopes are defined by being recognized by 3 or more donors/different studies)

2637 (ASWFTALTQHGKEDL) [compound 2637]
Dominant (CD4+ T cells [1]; [4]): Yes (more dominant epitopes are defined by being recognized by 3 or more donors/different studies)

2639 (DDQIGYYRRATRRIR) [compound 2639]
Dominant (CD4+ T cells [1]; [4]): Yes (more dominant epitopes are defined by being recognized by 3 or more donors/different studies)

2317 (AIVLQLPQGTTLPKG) [compound 2317]
Dominant (CD4+ T cells [1]; [3]): Yes (more dominant epitopes are defined by being recognized by 3 or more donors/different studies)

2654 (LIRQGTDYKHWPQIA) [compound 2654]
Dominant (CD4+ T cells [1]; [4]): Yes (more dominant epitopes are defined by being recognized by 3 or more donors/different studies)

2631 (TSRTLSYYKLGASQRVA) [compound 2631]
Dominant (CD4+ T cells [1]; [4]): Yes (more dominant epitopes are defined by being recognized by 3 or more donors/different studies)

2292 (MWLSYFIASFRLFAR) [compound 2292]
Dominant (CD4+ T cells [1]; [3]): Yes (more dominant epitopes are defined by being recognized by 3 or more donors/different studies)

2617 (QFAYANRNRFLYIIK) [compound 2617]
Dominant (CD4+ T cells [1]; [4]): Yes (more dominant epitopes are defined by being recognized by 3 or more donors/different studies)

2658 (GMEVTPSGTWLTYTGAIKLD) [compound 2658]
Dominant (CD4+ T cells [1]; [4]): Yes (more dominant epitopes are defined by being recognized by 3 or more donors/different studies)

2648 (DAALALLLLDRLNQL) [compound 2648]
Dominant (CD4+ T cells [1]; [4]): Yes (more dominant epitopes are defined by being recognized by 3 or more donors/different studies)

2638 (SWFTALTQHGKEDLK) [compound 2638]
Dominant (CD4+ T cells [1]; [4]): Yes (more dominant epitopes are defined by being recognized by 3 or more donors/different studies)

2629 (IKDLPKEITVATSRT) [compound 2629]
Dominant (CD4+ T cells [1]; [4]): Yes (more dominant epitopes are defined by being recognized by 3 or more donors/different studies)

2649 (LLLLDRLNQLESKMS) [compound 2649]
Dominant (CD4+ T cells [1]; [4]): Yes (more dominant epitopes are defined by being recognized by 3 or more donors/different studies)

2332 (FKDQVILLNKHIDAY) [compound 2332]
Dominant (CD4+ T cells [1]; [3]): Yes (more dominant epitopes are defined by being recognized by 3 or more donors/different studies)

2621 (MWLSYFIASFRLFAR) [compound 2621]
Dominant (CD4+ T cells [1]; [4]): Yes (more dominant epitopes are defined by being recognized by 3 or more donors/different studies)

2657 (ASAFFGMSRIGMEVT) [compound 2657]
Dominant (CD4+ T cells [1]; [4]): Yes (more dominant epitopes are defined by being recognized by 3 or more donors/different studies)

2619 (YRINWITGGIAIAMA) [compound 2619]
Dominant (CD4+ T cells [1]; [4]): Yes (more dominant epitopes are defined by being recognized by 3 or more donors/different studies)

2293 (TNILLNVPLHGTILT) [compound 2293]
Dominant (CD4+ T cells [1]; [3]): Yes (more dominant epitopes are defined by being recognized by 3 or more donors/different studies)

2316 (KDGIIWVATEGALNT) [compound 2316]
Dominant (CD4+ T cells [1]; [3]): Yes (more dominant epitopes are defined by being recognized by 3 or more donors/different studies)

2625 (LRGHLRIAGHHLGRC) [compound 2625]
Dominant (CD4+ T cells [1]; [4]): Yes (more dominant epitopes are defined by being recognized by 3 or more donors/different studies)

2636 (SGFAAYSRYRIGNYK) [compound 2636]
Dominant (CD4+ T cells [1]; [4]): Yes (more dominant epitopes are defined by being recognized by 3 or more donors/different studies)

2662 (ILLNKHIDAYKTFPP) [compound 2662]
Dominant (CD4+ T cells [1]; [4]): Yes (more dominant epitopes are defined by being recognized by 3 or more donors/different studies)

39 (ATSRTLSYYKLGASQ) [compound 39]
Allele(s) (CD4+ T cells [2]): DQB1*05:01, DQB1*05:03,; also recorded: DRB1*16:01
Restriction (CD4+ T cells [2]): CD4

94 (PSGTWLTYTGAIKLD) [compound 94]
Allele(s) (CD4+ T cells [2]): DQB1*06:03, DRB1*01:02,; also recorded: DRB1*01:03, DRB1*07:01,; also recorded: DRB1*15:01
Dominant (CD4+ T cells [2]; [5]): Yes (more dominant epitopes are defined by being recognized by 3 or more donors/different studies)
Restriction (CD4+ T cells [2]): CD4

38 (KEITVATSRTLSYYK) [compound 38]
Allele(s) (CD4+ T cells [2]): DQB1*06:03, DRB1*03:01,; also recorded: DRB1*07:01, DRB1*14:01,; also recorded: DRB1*14:06, DRB1*15:01,; also recorded: DRB1*16:02
Dominant (CD4+ T cells [2]; [5]): Yes (more dominant epitopes are defined by being recognized by 3 or more donors/different studies)
Restriction (CD4+ T cells [2]): CD4

75 (LLLLDRLNQLESKMS) [compound 75]
Allele(s) (CD4+ T cells [2]): DQB1*05:01, DRB1*03:01,; also recorded: DRB1*11:01, DRB1*12:01,; also recorded: DRB1*14:01, DRB1*15:01
Dominant (CD4+ T cells [2]; [5]): Yes (more dominant epitopes are defined by being recognized by 3 or more donors/different studies)
Restriction (CD4+ T cells [2]): CD4

253 (YIINLIIKNLSKSLT) [compound 253]
Allele(s) (HLA restriction) (CD4+ T cells [2]; CD4-restricted epitopes, HLA class II alleles identified as MHC restriction elements): DRB1*11:02, DRB1*13:03

49 (LNTDHSSSSDNIALL) [compound 49]
Restriction (CD4+ T cells [2]): CD4

108 (EEIAIILASFSASTS) [compound 108]
Allele(s) (CD4+ T cells [2]): DQB1*02:02, DQB1*03:02,; also recorded: DRB1*04:10, DRB1*07:01
Restriction (CD4+ T cells [2]): CD4

72 (AIVLQLPQGTTLPKG) [compound 72]
Dominant (CD4+ T cells [2]; [5]): Yes (more dominant epitopes are defined by being recognized by 3 or more donors/different studies)
Restriction (CD4+ T cells [2]): CD4

6 (LLEQWNLVIGFLFLT) [compound 6]
Allele(s) (CD4+ T cells [2]): DQB1*02:01, DQB1*05:03
Restriction (CD4+ T cells [2]): CD4

83 (RRGPEQTQGNFGDQE) [compound 83]
Restriction (CD4+ T cells [2]): CD4

10 (QFAYANRNRFLYIIK) [compound 10]
Allele(s) (CD4+ T cells [2]): DRB1*14:01
Dominant (CD4+ T cells [2]; [5]): Yes (more dominant epitopes are defined by being recognized by 3 or more donors/different studies)
Restriction (CD4+ T cells [2]): CD4

20 (MWLSYFIASFRLFAR) [compound 20]
Allele(s) (CD4+ T cells [2]): DQB1*02:01, DQB1*05:01,; also recorded: DQB1*05:02, DQB1*05:03,; also recorded: DRB1*03:01, DRB1*14:01,; also recorded: DRB1*14:06, DRB1*16:01,; also recorded: DRB1*16:02
Dominant (CD4+ T cells [2]; [5]): Yes (more dominant epitopes are defined by being recognized by 3 or more donors/different studies)
Restriction (CD4+ T cells [2]): CD4

5 (EELKKLLEQWNLVIG) [compound 5]
Allele(s) (CD4+ T cells [2]): DQB1*05:01, DQB1*05:02
Restriction (CD4+ T cells [2]): CD4

93 (GMEVTPSGTWLTYTG) [compound 93]
Restriction (CD4+ T cells [2]): CD4

1 (SEETGTLIVNSVLLF) [compound 1]
Allele(s) (CD4+ T cells [2]): DQB1*03:01
Restriction (CD4+ T cells [2]): CD4

91 (AFFGMSRIGMEVTPS) [compound 91]
Restriction (CD4+ T cells [2]): CD4

73 (AGNGGDAALALLLLD) [compound 73]
Allele(s) (CD4+ T cells [2]): DQB1*03:01, DQB1*06:02
Dominant (CD4+ T cells [2]; [5]): Yes (more dominant epitopes are defined by being recognized by 3 or more donors/different studies)
Restriction (CD4+ T cells [2]): CD4

80 (KRTATKAYNVTQAFG) [compound 80]
Allele(s) (CD4+ T cells [2]): DQB1*06:02, DQB1*06:03
Dominant (CD4+ T cells [2]; [5]): Yes (more dominant epitopes are defined by being recognized by 3 or more donors/different studies)
Restriction (CD4+ T cells [2]): CD4

68 (NKDGIIWVATEGALN) [compound 68]
Allele(s) (CD4+ T cells [2]): DQB1*02:01, DQB1*02:02,; also recorded: DQB1*03:02, DQB1*05:03,; also recorded: DRB1*04:04, DRB1*07:01
Dominant (CD4+ T cells [2]; [5]): Yes (more dominant epitopes are defined by being recognized by 3 or more donors/different studies)
Restriction (CD4+ T cells [2]): CD4

56 (FPRGQGVPINTNSSP) [compound 56]
Restriction (CD4+ T cells [2]): CD4

30 (GAVILRGHLRIAGHHLGR) [compound 30]
Dominant (CD4+ T cells [2]; [5]): Yes (more dominant epitopes are defined by being recognized by 3 or more donors/different studies)
Restriction (CD4+ T cells [2]): CD4

97 (LTYTGAIKLDDKDPN) [compound 97]
Allele(s) (CD4+ T cells [2]): DRB1*07:01
Restriction (CD4+ T cells [2]): CD4

51 (NAPRITFGGPSDSTG) [compound 51]
Allele(s) (CD4+ T cells [2]): DQB1*03:01
Restriction (CD4+ T cells [2]): CD4

45 (RVAGDSGFAAYSRYR) [compound 45]
Restriction (CD4+ T cells [2]): CD4

46 (SGFAAYSRYRIGNYK) [compound 46]
Allele(s) (CD4+ T cells [2]): DRB1*15:01
Dominant (CD4+ T cells [2]; [5]): Yes (more dominant epitopes are defined by being recognized by 3 or more donors/different studies)
Restriction (CD4+ T cells [2]): CD4

74 (DAALALLLLDRLNQL) [compound 74]
Allele(s) (CD4+ T cells [2]): DQB1*05:01, DQB1*05:03,; also recorded: DQB1*06:02, DRB1*03:01,; also recorded: DRB1*11:01, DRB1*12:01,; also recorded: DRB1*14:01, DRB1*15:01
Dominant (CD4+ T cells [2]; [5]): Yes (more dominant epitopes are defined by being recognized by 3 or more donors/different studies)
Restriction (CD4+ T cells [2]): CD4

258 (QEEVQELYSPIFLIV) [compound 258]
Dominant (CD4+ T cells [2]; CD4 epitopes, dominant = recognized by 3 or more donors/different studies): Yes (more dominant epitopes are defined by being recognized by 3 or more donors/different studies)

85 (LIRQGTDYKHWPQIA) [compound 85]
Dominant (CD4+ T cells [2]; [5]): Yes (more dominant epitopes are defined by being recognized by 3 or more donors/different studies)
Restriction (CD4+ T cells [2]): CD4

52 (TFGGPSDSTGSNQNG) [compound 52]
Allele(s) (CD4+ T cells [2]): DQB1*03:01
Restriction (CD4+ T cells [2]): CD4

57 (GVPINTNSSPDDQIG) [compound 57]
Restriction (CD4+ T cells [2]): CD4

106 (AADLDDFSKQLQQSM) [compound 106]
Restriction (CD4+ T cells [2]): CD4

2 (FLLVTLAILTALRLC) [compound 2]
Restriction (CD4+ T cells [2]): CD4

7 (NLVIGFLFLTWICLL) [compound 7]
Allele(s) (CD4+ T cells [2]): DQB1*05:01, DRB1*01:02
Restriction (CD4+ T cells [2]): CD4

104 (KQQTVTLLPAADLDDF) [compound 104]
Restriction (CD4+ T cells [2]): CD4

44 (LGASQRVAGDSGFAA) [compound 44]
Dominant (CD4+ T cells [2]; [5]): Yes (more dominant epitopes are defined by being recognized by 3 or more donors/different studies)
Restriction (CD4+ T cells [2]): CD4

92 (GMEVTPSGTWLTYTGAIKLD) [compound 92]
Dominant (CD4+ T cells [2]; [5]): Yes (more dominant epitopes are defined by being recognized by 3 or more donors/different studies)
Restriction (CD4+ T cells [2]): CD4

34 (LRIAGHHLGRCDIKD) [compound 34]
Restriction (CD4+ T cells [2]): CD4
